We go through 2 compounds from patent US20200179339A1, “PHARMACEUTICALS COMPOSITIONS FOR TREATMENT OF ATOPIC DERMATITIS” (CADILA HEALTHCARE LIMITED, priority 2018, published 2020).

For experiment [1], the system named is oxazolone induced atopic dermatitis in mice. As to the kind of experiment: Ear thickness in oxazolone induced atopic dermatitis in mice. It counts as in vivo, female balb/c mice. The arrangement: Change in ear thickness: unit not given beside the values. As to conditions: for percentage inhibition in ear thickness (atopic dermatitis): topical; for % change: topical day 5 and day 6, ear thickness vs vehicle control; for Change in ear thickness: topical on left ear day 5 and day 6. As for the experimental part:
(§1) The 7-8 week old female balb/c mice used for the study were divided into four groups of six mice each. Animal shaved on their abdomen region. On day-1, Oxazolone (Sigma chemical Co. USA) was dissolved in ethanol and applied at a dose volume is 500 ug/100 μl/mouse on shaved abdomen side as sensitized dose. On day 5, basal ear thickness was measured and oxazolone (dissolved in acetone, (100 μg/20 μl)) applied on left side ear at a dose volume of 20 μl/mouse on day 5 and day 6. Post Two hours of oxazolone application, treatment drugs applied on left ear respectively. Treatment was applied on day 5 and day 6 and ear thickness was measured on day 5 (basal), day 6 and day 7.
All animals were assessed for the ear thickness measurement. Animals were sacrificed on day 7, Ear weight were taken and ear were collected for histology and gene expression.
as §1, with “into five” for “into four”, “20 μ/mouse” for “20 μl/mouse”
All animals were assessed for the ear thickness measurement. Animals were sacrificed on day 7, Ear weight were taken.

In experiment [2] the test system is cyclo-oxygenase enzymes (COX). The following applies: background statement; cited from earlier work.
The mark [3] stands for this setting: Study-1, text, Apremilast 3%, Diclofenac 1.5%.
Setting [4] is: Study-1, Apremilast 3%, Diclofenac 1.5%.
Setting [5] is: Study-1, Apremilast 3%, Diclofenac 1.5%, vehicle control 0.3.
Setting [6] is: Study-2, text, Apremilast 1%, Diclofenac 1%.
The mark [7] stands for this setting: Study-2, Apremilast 1%, Diclofenac 1%.
Where [8] appears, read: Study-2, Apremilast 1%, Diclofenac 1%, vehicle control 0.44.

`CCOc1cc([C@@H](CS(C)(=O)=O)N2C(=O)c3cccc(NC(C)=O)c3C2=O)ccc1OC` [Apremilast, (+)-2-[1-(3-ethoxy-4-methoxyphenyl)-2-methanesulfonylethyl]-4-acetylaminoisoindolin-1,3-dione]: the “percentage inhibition in ear thickness (atopic dermatitis)” value amounted to 38% in experiment [1] (setting [3]) and 45% in experiment [1] (setting [6]). Moreover, the “% change” value is listed as 38.6% in experiment [1] (setting [4]) and 45.1% in experiment [1] (setting [7]). In addition, the results for the “Change in ear thickness” value in experiment [1] (setting [5]) and in experiment [1] (setting [8]) were 0.18 and 0.24, respectively.

For `O=C([O-])Cc1ccccc1Nc1c(Cl)cccc1Cl.[Na+]` [Diclofenac, sodium salt of [2-(2,6-Dichloroanilino)phenyl]acetic acid], the “percentage inhibition in ear thickness (atopic dermatitis)” value was 64% in experiment [1] (setting [3]) and 37% in experiment [1] (setting [6]). In addition, the “% change” value in experiment [1] (setting [4]) came to 63.8%; in experiment [1] (setting [7]), 36.8%. For the same compound, the entries for the “Change in ear thickness” value in experiment [1] (setting [5]) and in experiment [1] (setting [8]) were 0.11 and 0.28, respectively. Also, the “approximate relative COX-1/COX-2 specificity ratio” value in experiment [2] was “one”.
